From patent US20030149088A1, “HIV treatment” (priority 2000, published 2003)
“And” between values parts separate entries of the source, which are not always exact repeats. Equal entries are not always repeated.

Key:
HIV = assay: microbe, parasite or virus in culture; format: cell-based; details: in vitro acute model
HIV virus, ROJO in PBMC = assay: Reverse transcriptase activity against ROJO in PBMC; format: cell-based; set-up: Reverse Transcriptase Activity, Sample 1-3 / Reverse Transcriptase Activity, Mean: unit not given here; details: for Reverse Transcriptase Activity, Sample 1-3: individual samples
[1] = test system: chronic HIV-1 infected cells, ACH-2; assay: Chronic HIV study, T-cell HIV replication (ACH-2 cells); format: cell-based; details: increase, not suppression
Description: (§1) Chronic HIV-1 infected cells U1 were derived from an acute HIV-1 infection of the promonocytic cell line, U937. The chronic HIV-1 infected cells, ACH-2 were derived from an acute HIV-1 infection of the T cell line, A3.01.
(§2) These cells were cultured in medium and the phorbol ester, PMA. PMA causes the cells (both U1 and ACH-2) to be activated and not divide but it also causes the U-1 cells to differentiate. […] Cell viability was measured when these cell lines were treated with the test compound.
(§3) Both cell lines constituitively produce a small amount of HIV-1. ACH-2 cell lines tend to produce more HIV-1 than U1 cells as shown by p-24 ELISA. When either cell line is cultured in the presence of PMA there is an increase in the quantity of HIV-1 produced as measured by the p-24 antigen ELISA.
(§4) In addition, the number of […] positive HIV mRNA expressing cells per microscopic field is measured. Comparisons can be made from these numbers since the same number of cells were adhered to the glass slides for each drug concentration (10×10^6 cells/ml).

[2] = test system: Chronic HIV-1 infected cells U1; assay: Chronic HIV study, HIV replication in monocytes (U1 cells); format: cell-based
Description: as §1, §2, §3, §4

PBMC = assay: Toxicity values, XTT-based evaluation (cell titer O.D.), ROJO in PBMC; details: for Toxicity Values (Cell titer), Sample 1-3: individual samples

c1ccc2[nH]c(-c3cscn3)nc2c1 [2-(4-thiazolyl)-1H-benzimidazole]
inhibition at 60 µg/mL (HIV; Human immunodeficiency virus 1, at 60 μg/ml, read-out: inhibited viral replication): 98%

Cc1cn([C@H]2C[C@H](N=[N+]=[N-])[C@@H](CO)O2)c(=O)[nH]c1=O [AZT, reference compound]
Reverse Transcriptase Activity, % virus control (HIV virus, ROJO in PBMC; 0.0004 μg/ml): 101.5% | Reverse Transcriptase Activity, Sample 1-3 (HIV virus, ROJO in PBMC; 0.0004 μg/ml): 1.043 and 0.966 and 1.143 | Reverse Transcriptase Activity, % virus control (HIV virus, ROJO in PBMC; 0.0013 μg/ml): 101.4% | Reverse Transcriptase Activity, % virus control (HIV virus, ROJO in PBMC; 0.004 μg/ml): 98.5% | Reverse Transcriptase Activity, Mean (HIV virus, ROJO in PBMC; 0.004 μg/ml): 1.019 | Reverse Transcriptase Activity, Sample 1-3 (HIV virus, ROJO in PBMC; 0.004 μg/ml): 1.005 and 1.004 and 1.048 | Reverse Transcriptase Activity, % virus control (HIV virus, ROJO in PBMC; 0.013 μg/ml): 101.2% | Reverse Transcriptase Activity, Sample 1-3 (HIV virus, ROJO in PBMC; 0.013 μg/ml): 1.024 and 1.061 and 1.056 | Reverse Transcriptase Activity, % virus control (HIV virus, ROJO in PBMC; 0.04 μg/ml): 0.7% | Reverse Transcriptase Activity, Mean (HIV virus, ROJO in PBMC; 0.04 μg/ml): 168 | Reverse Transcriptase Activity, Sample 1-3 (HIV virus, ROJO in PBMC; 0.04 μg/ml): 176 and 108 and 220 | Reverse Transcriptase Activity, % virus control (HIV virus, ROJO in PBMC; 0.13 μg/ml): 0.5% | Reverse Transcriptase Activity, Mean (HIV virus, ROJO in PBMC; 0.13 μg/ml): 110.7 | Reverse Transcriptase Activity, Sample 1-3 (HIV virus, ROJO in PBMC; 0.13 μg/ml): 108 and 168 and 56 | Reverse Transcriptase Activity, % virus control (HIV virus, ROJO in PBMC; 0.4 μg/ml): 0.7% | Reverse Transcriptase Activity, Mean (HIV virus, ROJO in PBMC; 0.4 μg/ml): 172 | Reverse Transcriptase Activity, Sample 1-3 (HIV virus, ROJO in PBMC; 0.4 μg/ml): 340 and 80 and 96 | Reverse Transcriptase Activity, % virus control (HIV virus, ROJO in PBMC; 1.3 μg/ml): .04% | Reverse Transcriptase Activity, Mean (HIV virus, ROJO in PBMC; 1.3 μg/ml): 93.3 | Reverse Transcriptase Activity, Sample 1-3 (HIV virus, ROJO in PBMC; 1.3 μg/ml): 68 and 120 and 92 | Reverse Transcriptase Activity, % virus control (HIV virus, ROJO in PBMC; 4 μg/ml): 0.4% | Reverse Transcriptase Activity, Mean (HIV virus, ROJO in PBMC; 4 μg/ml): 98.7 | Reverse Transcriptase Activity, Sample 1-3 (HIV virus, ROJO in PBMC; 4 μg/ml): 108 and 104 and 84 | inhibited viral replication (HIV; at 1 μg/ml): 98%

COC(=O)Nc1nc2ccccc2[nH]1 [Carbendazim, 2-(methoxycarbonylamino)benzimidazole]
Reverse Transcriptase Activity, % virus control (HIV virus, ROJO in PBMC; 0.01 μg/ml): 110.4% | Reverse Transcriptase Activity, Mean (HIV virus, ROJO in PBMC; 0.01 μg/ml): 26107 | Reverse Transcriptase Activity, Sample 1-3 (HIV virus, ROJO in PBMC; 0.01 μg/ml): 24174 and 32124 and 22024 | Reverse Transcriptase Activity, % virus control (HIV virus, ROJO in PBMC; 0.032 μg/ml): 96.6% | Reverse Transcriptase Activity, Mean (HIV virus, ROJO in PBMC; 0.032 μg/ml): 22851 | Reverse Transcriptase Activity, Sample 1-3 (HIV virus, ROJO in PBMC; 0.032 μg/ml): 23225 and 17108 and 19000 | Reverse Transcriptase Activity, % virus control (HIV virus, ROJO in PBMC; 0.1 μg/ml): 74.1% | Reverse Transcriptase Activity, Mean (HIV virus, ROJO in PBMC; 0.1 μg/ml): 17513 | Reverse Transcriptase Activity, Sample 1-3 (HIV virus, ROJO in PBMC; 0.1 μg/ml): 1394.0 and 16747 and 12569 | Reverse Transcriptase Activity, % virus control (HIV virus, ROJO in PBMC; 0.32 μg/ml): 47.1% | Reverse Transcriptase Activity, Mean (HIV virus, ROJO in PBMC; 0.32 μg/ml): 11143 | Reverse Transcriptase Activity, Sample 1-3 (HIV virus, ROJO in PBMC; 0.32 μg/ml): 200 and 8787 and 11249 | Reverse Transcriptase Activity, % virus control (HIV virus, ROJO in PBMC; 1 μg/ml): 3.7% | Reverse Transcriptase Activity, Mean (HIV virus, ROJO in PBMC; 1 μg/ml): 885.3 | Reverse Transcriptase Activity, Sample 1-3 (HIV virus, ROJO in PBMC; 1 μg/ml): 1394 and 685.0 and 577.0 | Reverse Transcriptase Activity, % virus control (HIV virus, ROJO in PBMC; 3.2 μg/ml): 0.6% | Reverse Transcriptase Activity, Mean (HIV virus, ROJO in PBMC; 3.2 μg/ml): 138.7 | Reverse Transcriptase Activity, Sample 1-3 (HIV virus, ROJO in PBMC; 3.2 μg/ml): 200 and 100 and 116 | Reverse Transcriptase Activity, % virus control (HIV virus, ROJO in PBMC; 10 μg/ml): 0.6% | Reverse Transcriptase Activity, Mean (HIV virus, ROJO in PBMC; 10 μg/ml): 153.3 | Reverse Transcriptase Activity, Sample 1-3 (HIV virus, ROJO in PBMC; 10 μg/ml): 136 and 216 and 108 | Reverse Transcriptase Activity, % virus control (HIV virus, ROJO in PBMC; 32 μg/ml): 0.6% | Reverse Transcriptase Activity, Mean (HIV virus, ROJO in PBMC; 32 μg/ml): 130.7 | Reverse Transcriptase Activity, Sample 1-3 (HIV virus, ROJO in PBMC; 32 μg/ml): 124 and 180 and 88.0 | Reverse Transcriptase Activity, % virus control (HIV virus, ROJO in PBMC; 100 μg/ml): 0.5% | Reverse Transcriptase Activity, Mean (HIV virus, ROJO in PBMC; 100 μg/ml): 122.7 | Reverse Transcriptase Activity, Sample 1-3 (HIV virus, ROJO in PBMC; 100 μg/ml): 132 and 84.0 and 152.0 | T-cell HIV replication was increased [1]: 44% | suppressed replication in the HIV monocytes [2]: 9% | inhibition at 4 µg/mL (HIV; Human immunodeficiency virus 1, at 4 μg/ml, read-out: inhibited viral replication): 100% | Toxicity Values (Cell titer), Mean (PBMC; 0.01 μg/ml): 1.138 O.D. @ 490/650 nm | Toxicity Values, % cell control (PBMC; 0.01 μg/ml): 109.9% | Toxicity Values (Cell titer), Sample 1-3 (PBMC; 0.01 μg/ml): 1.115 O.D. @ 490/650 nm and 1.180 O.D. @ 490/650 nm and 1.118 O.D. @ 490/650 nm | Toxicity Values (Cell titer), Mean (PBMC; 0.032 μg/ml): 1.182 O.D. @ 490/650 nm | Toxicity Values, % cell control (PBMC; 0.032 μg/ml): 114.2% | Toxicity Values (Cell titer), Sample 1-3 (PBMC; 0.032 μg/ml): 1.143 O.D. @ 490/650 nm and 1.198 O.D. @ 490/650 nm and 1.204 O.D. @ 490/650 nm | Toxicity Values (Cell titer), Mean (PBMC; 0.1 μg/ml): 1.157 O.D. @ 490/650 nm | Toxicity Values, % cell control (PBMC; 0.1 μg/ml): 111.8% | Toxicity Values (Cell titer), Sample 1-3 (PBMC; 0.1 μg/ml): 1.145 O.D. @ 490/650 nm and 1.080 O.D. @ 490/650 nm and 1.246 O.D. @ 490/650 nm | Toxicity Values (Cell titer), Mean (PBMC; 0.32 μg/ml): 1.049 O.D. @ 490/650 nm | Toxicity Values, % cell control (PBMC; 0.32 μg/ml): 101.4% | Toxicity Values (Cell titer), Sample 1-3 (PBMC; 0.32 μg/ml): 1.031 O.D. @ 490/650 nm and 1.050 O.D. @ 490/650 nm and 1.067 O.D. @ 490/650 nm | Toxicity Values (Cell titer), Mean (PBMC; 1 μg/ml): 1.004 O.D. @ 490/650 nm | Toxicity Values, % cell control (PBMC; 1 μg/ml): 97.0% | Toxicity Values (Cell titer), Sample 1-3 (PBMC; 1 μg/ml): 1.019 O.D. @ 490/650 nm and 1.003 O.D. @ 490/650 nm and 0.991 O.D. @ 490/650 nm | Toxicity Values (Cell titer), Mean (PBMC; 3.2 μg/ml): 0.992 O.D. @ 490/650 nm | Toxicity Values, % cell control (PBMC; 3.2 μg/ml): 95.8% | Toxicity Values (Cell titer), Sample 1-3 (PBMC; 3.2 μg/ml): 1.013 O.D. @ 490/650 nm and 1.003 O.D. @ 490/650 nm and 0.959 O.D. @ 490/650 nm | Toxicity Values (Cell titer), Mean (PBMC; 10 μg/ml): 0.944 O.D. @ 490/650 nm | Toxicity Values, % cell control (PBMC; 10 μg/ml): 91.2% | Toxicity Values (Cell titer), Sample 1-3 (PBMC; 10 μg/ml): 1.001 O.D. @ 490/650 nm and 0.858 O.D. @ 490/650 nm and 0.973 O.D. @ 490/650 nm | Toxicity Values (Cell titer), Mean (PBMC; 32 μg/ml): 0.845 O.D. @ 490/650 nm | Toxicity Values, % cell control (PBMC; 32 μg/ml): 81.6% | Toxicity Values (Cell titer), Sample 1-3 (PBMC; 32 μg/ml): 0.864 O.D. @ 490/650 nm and 0.835 O.D. @ 490/650 nm and 0.836 O.D. @ 490/650 nm | Toxicity Values (Cell titer), Mean (PBMC; 100 μg/ml): 0.807 O.D. @ 490/650 nm | Toxicity Values, % cell control (PBMC; 100 μg/ml): 77.9% | Toxicity Values (Cell titer), Sample 1-3 (PBMC; 100 μg/ml): 0.839 O.D. @ 490/650 nm and 0.782 O.D. @ 490/650 nm and 0.799 O.D. @ 490/650 nm
